Measurements from patent publication US7829300B2 (priority 2002, dated 2010).

Tests used:
P2Y2 receptor = assay: Cytoplasmic Ca2+ measurement with ATP alone in CHOK1-μ-K32 cells (endogenous P2Y2); format: cell-based
P2X7 = molecular target: T1, P2X7 (Homo sapiens, UniProt Q99572); conditions: P2X7 versus P2Y2; cited from earlier work
T1 sequence (Q99572 1-595): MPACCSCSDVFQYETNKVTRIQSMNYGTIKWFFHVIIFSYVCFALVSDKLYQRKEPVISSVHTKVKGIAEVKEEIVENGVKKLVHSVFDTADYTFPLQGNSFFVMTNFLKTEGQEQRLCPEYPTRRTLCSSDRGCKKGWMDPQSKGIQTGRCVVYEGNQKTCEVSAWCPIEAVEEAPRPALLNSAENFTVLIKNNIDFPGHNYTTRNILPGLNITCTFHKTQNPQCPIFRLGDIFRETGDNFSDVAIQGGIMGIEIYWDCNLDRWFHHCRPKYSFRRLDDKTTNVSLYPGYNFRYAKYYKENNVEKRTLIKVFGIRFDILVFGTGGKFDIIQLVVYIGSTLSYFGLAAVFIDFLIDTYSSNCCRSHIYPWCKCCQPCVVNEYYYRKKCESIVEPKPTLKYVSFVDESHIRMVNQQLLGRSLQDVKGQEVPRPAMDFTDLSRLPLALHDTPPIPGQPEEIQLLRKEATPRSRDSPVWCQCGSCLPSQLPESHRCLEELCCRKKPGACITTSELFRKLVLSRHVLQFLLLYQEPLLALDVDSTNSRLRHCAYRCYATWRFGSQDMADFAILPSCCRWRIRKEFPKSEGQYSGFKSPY

μ opioid receptor = molecular target: T2, μ opioid receptor (Homo sapiens, UniProt P35372); format: cell-based
T2 construct: expressed in transfected cells; host or cells: CHO K1 (clone CHOK1-μ-K32)
T2 sequence (P35372 whole entry, species assumed): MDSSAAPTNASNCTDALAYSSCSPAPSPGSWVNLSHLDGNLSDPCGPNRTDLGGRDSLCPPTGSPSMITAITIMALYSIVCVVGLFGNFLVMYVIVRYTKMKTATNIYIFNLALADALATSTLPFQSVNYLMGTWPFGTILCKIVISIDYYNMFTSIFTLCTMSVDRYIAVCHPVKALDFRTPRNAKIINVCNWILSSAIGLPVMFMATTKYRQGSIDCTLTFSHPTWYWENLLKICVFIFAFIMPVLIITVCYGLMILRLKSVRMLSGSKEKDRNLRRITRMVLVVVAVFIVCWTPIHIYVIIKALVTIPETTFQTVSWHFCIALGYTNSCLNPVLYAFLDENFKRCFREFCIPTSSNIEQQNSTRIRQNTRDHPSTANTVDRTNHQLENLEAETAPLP

[1] = tested on: CHOK1-empty (mock) strain; format: cell-based
5HT-1B receptor = molecular target: T3, 5HT-1B receptor (Cricetulus griseus, UniProt P46636); assay: Cytoplasmic Ca2+ measurement (FLIPR, fluo-4) of the endogenously expressed 5HT-1B receptor in CHO K1 cells; format: cell-based; conditions: serotonin concentration 10 μM, 100 nM ATP, CHOK1-ORL-K66, mean of four measurements
T3 construct: the 5HT-1B receptor endogenously expressed by the CHO cells; endogenous in cells; host or cells: CHO K1 (CHOK1-ORL-K66)
T3 sequence (P46636 whole entry): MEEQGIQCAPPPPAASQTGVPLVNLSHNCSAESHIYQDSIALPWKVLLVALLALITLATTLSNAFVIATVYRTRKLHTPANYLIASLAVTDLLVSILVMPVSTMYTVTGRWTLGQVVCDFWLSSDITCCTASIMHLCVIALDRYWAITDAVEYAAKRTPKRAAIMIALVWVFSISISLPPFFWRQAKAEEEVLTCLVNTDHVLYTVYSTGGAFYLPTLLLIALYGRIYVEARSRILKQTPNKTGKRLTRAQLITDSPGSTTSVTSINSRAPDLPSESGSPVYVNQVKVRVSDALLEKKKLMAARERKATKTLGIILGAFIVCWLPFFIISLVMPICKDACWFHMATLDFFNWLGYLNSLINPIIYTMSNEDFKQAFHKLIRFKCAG
Experimental: The cytoplasmic Ca^2+ concentration was measured in all the Examples using the FLIPR Calcium Plus Assay Kit and a corresponding FLIPR device from Molecular Devices, according to the manufacturer's instructions.
In brief, on the day preceding the experiment, the cells to be measured were plated out in a suitable 96-well cell culture plate, in a density of 25,000 cells per well, in a volume of 100 μl of the appropriate medium. Cell culture plates from Becton-Dickinson (order no. 66440) coated with poly-D-lysine were used for the test. On the day of the test, the cells were loaded with fluo-4. To that end, a vial of fluo-4 was dissolved in 23 μl of DMSO and 23 μl of Pluronic F 127. 42 μl of the solution were added to 21 ml of HBSS (+Probenecid and Hepes). 50 μl of this solution per well were added to the cells, the plates being incubated, for loading, for 30 minutes at 37° C., 5% CO2, 98% relative humidity. In order to remove excess loading solution, the plates were washed three times with 200 μl of HBSS in a washing device for 96-well plates. This was followed by a dispension step, in which in each case 100 μl of HBSS were added to the cells. […]
Compared with the negative control, the addition of the 5HT-1B agonist serotonin produced a marked signal intensification in the fluorescence measurement (FIG. 6).

## Nc1ncnc2c1ncn2[C@@H]1O[C@H](COP(=O)(O)OP(=O)(O)OP(=O)(O)O)[C@@H](O)[C@H]1O [ATP]
P2Y2 receptor; 300 nM ATP, absence of DAMGO, CHOK1-μ-K32
  fluorescence signal: more than 1000 relative units
P2Y2 receptor; ATP on its own, CHO-μ-K32 cells
  ATP concentration at which a change in the fluorescence is detectable: ≥ 300 nM
P2X7
  ATP binding to P2X7 relative to P2Y2 (times more weakly): about 100 times

## C[C@@H](NC(=O)[C@@H](N)Cc1ccc(O)cc1)C(=O)NCC(=O)N(C)[C@@H](Cc1ccccc1)C(=O)NCCO [DAMGO]
μ opioid receptor
  fluorescence intensity in dependence on concentration: conventional dose-response curve
  fluorescence signal: about 300 relative units
[1]
  effect of DAMGO on the ATP-triggered fluorescence signal: not affected
  fluorescence signal in non-transfected CHOK1 cells: none of the μ-receptor agonists used gave a fluorescence signal above the background

## NCCc1c[nH]c2ccc(O)cc12 [serotonin]
5HT-1B receptor
  fluorescence intensity on average: 1337 relative units
